Converted amounts (≈) assume the structure as drawn.
Columns and labels:
Format in all cases: organism-based
[1] = system: Gossypium hirsutum; test: Phytotoxicity against Gossypium hirsutum assessed as appearance of lesions at 10 ug applied to adaxial surface of leaf for 12 hrs measured after 16 hrs; conditions: in vivo, topical_or_ocular
[2] = system: Gossypium hirsutum; test: Phytotoxicity against Gossypium hirsutum assessed as appearance of lesions at 0.5 ug applied to adaxial surface of leaf for 12 hrs measured after 4 days; conditions: in vivo, topical_or_ocular
[3] = Phytotoxicity against Cucumis sativus protoplast after 3 hrs by fluorescein diacetate staining; conditions: Cucumis sativus protoplasts, read-out: LD50

Structure (SMILES) | Activity [1] | Activity [2] | CC50 at 3 h [3] [mg/L]
CC1CCC/C=C/C(=O)c2c(O)cc(O)cc2CC(=O)O1 (centres undefined) | Toxic | Toxic | 15 (≈ 51.7 µM)
CC1CCCCCC(=O)c2c(O)cc(O)cc2CC(=O)O1 (centres undefined) [CURVULARIN] | – | – | 21 (≈ 71.8 µM)
